Results reported in ChEMBL document CHEMBL4837229 (Eur J Med Chem, 2021).

These compounds were tested against Neuraminidase (Influenza A virus (strain A/USSR/90/1977 H1N1), UniProt P03469, H274Y) (assay: Inhibition of Influenza A virus (A/California/04/2009 (H1N1)) Neuraminidase H274Y mutant using MUNANA as substrate preincubated for 5 to 15 mins followed by substrate addition and measured after 30 mins by fluorescence spectrophotometric method).

Structure (SMILES)	IC50 [µM]
CCC(CC)O[C@@H]1C=C(C(=O)O)C[C@H](NC(N)=O)[C@H]1NC(C)=O	0.667
CCC(CC)O[C@@H]1C=C(C(=O)O)C[C@H](NC(=O)NNC)[C@H]1NC(C)=O	0.118
CCCCNNC(=O)N[C@H]1CC(C(=O)O)=C[C@@H](OC(CC)CC)[C@@H]1NC(C)=O	0.147
CCC(CC)O[C@@H]1C=C(C(=O)O)C[C@H](NC(=O)NN)[C@H]1NC(C)=O	0.133
CCCNNC(=O)N[C@H]1CC(C(=O)O)=C[C@@H](OC(CC)CC)[C@@H]1NC(C)=O	0.384
